Data: patent US20180289666A1, “FLAVONOLIGNANS FOR TREATMENT OF AUTOIMMUNE INFLAMMATORY DISEASES” (Macau University of Science and Technology, priority 2017, published 2018)
Read-outs that look alike come from different tables or passages of the source.

Experiments:
AIA rats [1] = conditions: for ESR: day 42, read at 15 min, ± SD
AIA rats [2] = experiment: Plasma metabolomics by LC-MS/MS in AIA rats; format: in vivo, Sprague-Dawley (SD) rats
Method: (§1) The plasma sample (200 μL) was thawed on ice for 5 min prior to sample preparation and was mixed with 200 μL of 10 mM N-ethylmaleimide (NEM) in PBS buffer solution and 1000 μL of methanol containing internal standard (I.S.) Phe-d5 in 10 ng/ml. This mixture was incubated at −20° C. for 20 min, and then centrifuged at 12000 rpm for 10 min at 4° C. The supernatant was completely dried under nitrogen flow (Pressure Blowing Concentrator, Tokyo Rikakika, Tokyo, Japan) and reconstituted with distilled water.
LC-MS/MS analysis was performed on A Waters ACQUITY UPLC coupled with a 4000 Q-TRAP mass spectrometer. Chromatographic separation was carried on a Waters X Bridge™ BEH C18 analytical column (2.5 μm, 3.0×100 mm; Waters, Torrance, Calif.) with a mobile phase composed of 0.1% formic acid water (solvent A) and methanol (solvent B) which was running in a gradient program: 0-3.0 min (0%-1% B); 3.0-10.0 min (1-3% B); 10.0-14.0 min (3-50% B); 14.0-18.0 min (50-95% B); 18.0-22.0 min (95-0% B); followed by a 3-min re-equilibration step. The injection volume was 10 μl at 4° C. and flow rate was 0.6 ml/min. Electrospray (ESI) source were used in both positive and negative ion mode. […]
The normalized data were exported and further processed by PCA and PLS-DA using a multivariate analysis package SIMCA-P software (Umea, Sweden). Model quality was evaluated based on the relevant values of R^2 and Q^2. […]

[3] = tested on: MCD diet induced NASH mice; experiment: Plasma metabolomics by LC-MS/MS in MCD diet induced NASH mice; format: in vivo, C57Bl/6 mice; conditions: Silybin 300 mg/kg, * P < 0.05, ** P < 0.01
Method: as §1
LC-MS/MS analysis was performed on A Waters ACQUITY UPLC coupled with a 4000 Q-TRAP mass spectrometer. Chromatographic separation was carried on a Waters X Bridge™ BEH C18 analytical column (2.5 μm, 3.0×100 mm; Waters, Torrance, Calif.) with a mobile phase composed of 0.1% formic acid water (solvent A) and methanol (solvent B) which was running in a gradient program: 0-3.0 min (0%-1% B); 3.0-10.0 min (1-3% B); 10.0-14.0 min (3-50% B); 14.0-18.0 min (50-95% B); 18.0-22.0 min (95-0% B); followed by a 3-min re-equilibration step. The injection volume was 10 μl at 4° C. and flow rate was 0.6 ml/min. Electrospray (ESI) source were used in both positive and negative ion mode. The source parameters were set as follows: gas temperature: 450° C.; the ion spray voltage, ±4500 V; ion source gas 1 (nebulizer gas) 40 psi (N2); ion source gas 2 (auxiliary gas), 40 psi (N2); curtain gas: 20 psi. The MS/MS analysis was acquired in targeted MS/MS (MRM) mode with the collision energy ranging from 10 V to 40 V. All UPLC-MS data were obtained by AB Analyst Software (Version 1.6.2). Table 1 lists the 72 metabolites that are identified in the plasma samples from both AIA and MCD-diet induced NASH animal studies. The intensity of each ion was normalized with respect to peak area of I.S. for each chromatogram prior to multivariate statistical analysis.
The normalized data were exported and further processed by PCA and PLS-DA using a multivariate analysis package SIMCA-P software (Umea, Sweden). Model quality was evaluated based on the relevant values of R^2 and Q^2. Potential markers of interest were extracted from the values of variable importance in the projections (VIP>1), which were constructed from PLS-DA analysis. P values were obtained from Student's t-test (P<0.05). Hierarchical clustering analysis (HCA) was performed using bioinformatics software Multi Experiment Viewer (The Institute of Genomic Research, MA, USA) for visualization and organization of metabolite profiles.
Plasma samples of MCD-diet model were analyzed by LC-MS/MS for better understanding the functional metabolism in NASH model as well as the mechanism of Silybin treatment. […] OPLS-DA (R^2X=0.877, Q^2=0.749) was also used to identify and rank signature metabolites explaining most of the variance of metabolomes among the control, model and treatment group based on VIP scores and/or P value (FIG. 9). Unsupervised hierarchical clustering of this metabolite set classified NASH vs. control mice with 100% accuracy in both cohorts. A 15-metabolite signature with top-ranked VIP scores (VIP>1.0) separated control, model and Silybin treatment groups (p<0.05) was identified in Table 18 that distinguish each groups.

AIA rats [4] = experiment: Radiological and histopathological examination of hind paws / ankle joints of AIA rats; format: in vivo, Sprague-Dawley (SD) rats
Method: Disease severity and progression were evaluated by measurements of both hind paw volumes with a plethysmometer chamber (Yiyan technology, Jinan, China) and body weight with a 0.1 g precision balance (Sartorius AG, Göttingen, Germany) every two or three days after arthritis induction. For evaluation the arthritic scoring, the lesions of four paws of each rat (i.e., the arthritic signs) were graded by two separate investigators with a semi-quantitative scale: 0 (normal), 4-8 (mild changes), 8-12 (moderate changes), and 12-16 (severe changes) (van Eden W., et. al., J. E. Coligan, Editor. 2001, John Wiley: New York. p. 1-11). Erythrocyte sedimentation rate (ESR) was determined with ICSH (International Council for Standardization in Hematology) selected method with little modifications at day 42. Briefly, 120 μl of blood sample was taken directly and put into 30 μl of 0.109 mol/L sodium citrate, mixed well, and then transferred into a 1.0 mm×100 mm capillary tube (West China Medical University, ChengDu, China). The tubes were held obliquely at an angle of […] and the erythrocyte sedimentation rate was recorded at 15 min. The cytokines levels including IL-1β, TNF-α, IL-17, IL-33, MMP-9, TIMP-1 and PGE2 in serum were measured using commercially available ELISA kits according to the manufacturers instructions. At the end of the experiments, rat knee images were measured (mean of three readings per knee, Meinaite digital calliper, ShangHai, China) using a IVIS Lumina XRMS Series (PerkinElmer, America) (Esser, R. E., et al., Arthritis Rheum, 1995, 38(1): p. 129-38).
For histopathological assessment, arthritic paws were collected on day 42 after X-ray check, fixed with 10% phosphate buffered saline (PBS) buffered formalin, and decalcified for 3 days in formic acid. Sections from paraffin-embedded tissue were stained with hematoxylin and eosin (H&E). The obtained plasma was stored in −70° C. for metabolomic studies. The relative organ weight ratios (such as liver index, spleen index, kidney index, lung index) were calculated by dividing the weight of each organ with the body weight.

[5] = AIA rats, Silybin 200 mg/kg oral, day 42

Structure (SMILES): COc1cc([C@H]2Oc3cc([C@H]4Oc5cc(O)cc(O)c5C(=O)[C@@H]4O)ccc3O[C@@H]2CO)ccc1O (stereo in doubt) [Silybin]
- ESR (AIA rats [1]; AIA rats, Silybin 100 mg/kg oral daily): 34.35 ± 9.25 mm
- ESR (AIA rats [1]; AIA rats, Silybin 200 mg/kg oral daily): significantly (P<0.001) reduced
- ESR (AIA rats [1]; AIA rats, Silybin 200 mg/kg oral daily, listed as SB): 28.09 ± 11.14 mm
- arthritis score (AIA rats [1]; [5]): 7.60
- paw volume (AIA rats [1]; [5]): 3.02 mL
- relative organ weight ratio (such as liver index, spleen index, kidney index, lung index) (AIA rats [1]; rat, in vivo): reversed changes
- metabolic network (plasma metabolites) (AIA rats [2]): effectively repair the metabolic network
- Trend SB300 VS Model: Malondialdehyde (MDA) [3]: ↓**
- Trend SB300 VS Model: 4-(2-aminophenyl)-2,4-dioxobutanoic acid ([3]; plasma): ↓*
- Trend SB300 VS Model: 5-hydroxytryptamine ([3]; plasma): ↓**
- Trend SB300 VS Model: GSH ([3]; plasma): ↑*
- Trend SB300 VS Model: GSH/GSSG ([3]; plasma): ↑*
- Trend SB300 VS Model: GSSG ([3]; plasma): ↓*
- Trend SB300 VS Model: Glycochenodeoxycholic acid(GCDCA) ([3]; plasma): ↓*
- Trend SB300 VS Model: L-Kynurenine ([3]; plasma): ↑**
- Trend SB300 VS Model: LPC(16:1) ([3]; plasma): ↓*
- Trend SB300 VS Model: LPC(18:0) ([3]; plasma): ↑*
- Trend SB300 VS Model: LPC(20:1) ([3]; plasma): ↑*
- Trend SB300 VS Model: LPC(22:6) ([3]; plasma): ↑*
- Trend SB300 VS Model: N-Phenylacetylglycine ([3]; plasma): ↓*
- Trend SB300 VS Model: Ophthalmic acid ([3]; plasma): ↓*
- Trend SB300 VS Model: Oxaloacetate ([3]; plasma): ↑*
- Trend SB300 VS Model: Proline ([3]; plasma): ↓*
- Trend SB300 VS Model: Trigonelline ([3]; plasma): ↑**
- Trend SB300 VS Model: Uric acid ([3]; plasma): ↓**
- Trend SB300 VS Model: Uridine ([3]; plasma): ↓**
- Trend SB300 VS Model: Ursodeoxycholic acid (UDCA) ([3]; plasma): ↓*
- cartilage and joint destruction of the arthritic joints (radiographs) (AIA rats [4]; Silybin 100 mg/kg or 200 mg/kg, day 42): ameliorated
- infiltration of inflammatory cells, synovial hyperplasia (AIA rats [4]; ankle joint sections, H&E): diminished
- histological grade of representative ankle joint sections (AIA rats [4]; day 42, H&E, FIG. 2C (MTX; Silybin 200 mg/kg), vehicle-treated AIA grade 2/3): 0
